From patent US20140303164A1, “THERAPEUTIC COMPOUNDS” (Gilead Sciences, Inc., priority 2013, published 2014) come the findings set out here.

Each structure is given as a SMILES string.

In this experiment the test system is HIV-IIIb. Nature of the experiment: Test A: Antiviral Assay in MT4 Cells. Type of experiment: cell-based, HIV-1. The note with it: for inhibition at 0.2 µM / inhibition at 2 µM: Human immunodeficiency virus 1, IIIB, MT4, 120 h; for inhibition at 0.2 µM: read-out: % inhibition at 0.2 μM; for inhibition at 2 µM: read-out: % inhibition at 2 μM. The procedure: Test A: Antiviral Assay in MT4 Cells
MT-4 cells were next mixed with HIV-IIIb at an m.o.i of 0.003 for 1 hour, after which time 35 μL of virus/cell mixture (2000 cells) was immediately added to each well containing 40 μL of diluted compound. The plates were then incubated at 37° C. for 5 days. […] Cell lysis was carried out by incubating at room temperature for 10 min and then chemiluminescence was read.

For the compound `CC(C)(O)C#Cc1ccc(-c2ccc(F)c(C(N)=O)c2)c([C@H](Cc2cc(F)cc(F)c2)NC(=O)Cn2nc(C(F)(F)F)c3c2C(F)(F)[C@@H]2C[C@H]32)n1` [Compound 18, 5-(2-((S)-1-(2-((3bS,4aR)-5,5-difluoro-3-(trifluoromethyl)-3b,4,4a,5-tetrahydro-1H-cyclopropa[3,4]cyclopenta[1,2-c]pyrazol-1-yl)acetamido)-2-(3,5-difluorophenyl)ethyl)-6-(3-hydroxy-3-methylbut-1-yn-1-yl)pyridin-3-yl)-2-fluorobenzamide], under “percent inhibition of virus-induced cell killing at 0.2 μM, comparison with previously published compounds (WO 2013/006738)”, the “Response at 0.2 μM” value is given as 96%. The “Response at 2 μM” value (percent inhibition of virus-induced cell killing at 2 μM, comparison with previously published compounds (WO 2013/006738)) is 90%.

For orientation: inhibition means the relative decrease from the control value, in per cent. For `COc1cc(-c2ccc(-c3ccc4c(c3)C(=O)NC4)c([C@H](Cc3cc(F)cc(F)c3)NC(=O)Cn3nc(C(F)F)c4c3C(F)(F)CCC4(F)F)n2)ccn1` [Compound 8C, (S)-2-(3-(difluoromethyl)-4,4,7,7-tetrafluoro-4,5,6,7-tetrahydro-1H-indazol-1-yl)-N-(2-(3,5-difluorophenyl)-1-(2′-methoxy-5-(3-oxoisoindolin-5-yl)-[2,4′-bipyridin]-6-yl)ethyl)acetamide], the inhibition at 0.2 µM worked out at 6%.

As for `NC(=O)c1ccc(-c2cnc3[nH]ccc3c2)c([C@H](Cc2cc(F)cc(F)c2)NC(=O)Cn2nc(C(F)F)c3c2C(F)(F)CCC3(F)F)n1` [Compound 1B, (S)-6-(1-(2-(3-(difluoromethyl)-4,4,7,7-tetrafluoro-4,5,6,7-tetrahydro-1H-indazol-1-yl)acetamido)-2-(3,5-difluorophenyl)ethyl)-5-(1H-pyrrolo[2,3-b]pyridin-5-yl)picolinamide], the inhibition at 0.2 µM was 17%.

What is called % inhibition is how much of the control response was suppressed. High values mean strong suppression, low ones little suppression. On to `CC(C)(O)C#Cc1ccc(-c2cccc3c2CNC3=O)c([C@H](Cc2cc(F)cc(F)c2)NC(=O)Cn2nc(C(F)(F)F)c3c2C(F)(F)[C@@H]2C[C@H]32)n1` [Compound 15, 2-((3bS,4aR)-5,5-difluoro-3-(trifluoromethyl)-3b,4,4a,5-tetrahydro-1H-cyclopropa[3,4]cyclopenta[1,2-c]pyrazol-1-yl)-N—((S)-2-(3,5-difluorophenyl)-1-(6-(3-hydroxy-3-methylbut-1-yn-1-yl)-3-(1-oxoisoindolin-4-yl)pyridin-2-yl)ethyl)acetamide], for which the “% inhibition at 2 μM” value (percent inhibition of virus-induced cell killing at 2 μM drug concentration, from dose response curve, MT-4 cells, HIV-IIIb, 5 days, values above 100 normalized to 100) came to 94%.

For the compound `CC(C)(O)C#Cc1ccc(-c2ccc3c(c2)C(=O)NC3)c([C@H](Cc2cc(F)cc(F)c2)NC(=O)Cn2nc(C(F)F)c3c2C(F)(F)CCC3(F)F)n1` [Compound 9B, (S)-2-(3-(difluoromethyl)-4,4,7,7-tetrafluoro-4,5,6,7-tetrahydro-1H-indazol-1-yl)-N-(2-(3,5-difluorophenyl)-1-(6-(3-hydroxy-3-methylbut-1-yn-1-yl)-3-(3-oxoisoindolin-5-yl)pyridin-2-yl)ethyl)acetamide], the inhibition at 0.2 µM was determined as 92%.

For the compound `CC(C)(O)C#Cc1ccc(-c2ccc3c(c2)C(=O)NC32CC2)c([C@H](Cc2cc(F)cc(F)c2)NC(=O)Cn2nc(C(F)(F)F)c3c2C(F)(F)[C@@H]2C[C@H]32)n1` [Compound 3D, 2-((3bS,4aR)-5,5-difluoro-3-(trifluoromethyl)-3b,4,4a,5-tetrahydro-1H-cyclopropa[3,4]cyclopenta[1,2-c]pyrazol-1-yl)-N—((S)-2-(3,5-difluorophenyl)-1-(6-(3-hydroxy-3-methylbut-1-yn-1-yl)-3-(3′-oxospiro[cyclopropane-1,1′-isoindolin]-5′-yl)pyridin-2-yl)ethyl)acetamide], the inhibition at 0.2 µM worked out at 82%.

On to `CC(C)(O)C#Cc1ccc(-c2cccc3c(=O)[nH]c(=O)[nH]c23)c([C@H](Cc2cc(F)cc(F)c2)NC(=O)Cn2nc(C(F)(F)F)c3c2C(F)(F)[C@@H]2C[C@H]32)n1` [Compound 17, 2-((3bS,4aR)-5,5-difluoro-3-(trifluoromethyl)-3b,4,4a,5-tetrahydro-1H-cyclopropa[3,4]cyclopenta[1,2-c]pyrazol-1-yl)-N—((S)-2-(3,5-difluorophenyl)-1-(3-(2,4-dioxo-1,2,3,4-tetrahydroquinazolin-8-yl)-6-(3-hydroxy-3-methylbut-1-ynyl)pyridin-2-yl)ethyl)acetamide], for which the inhibition at 0.2 µM turned out to be 95%.

`Cn1nc(NS(C)(=O)=O)c2c(F)ccc(-c3ccc(C#CC(C)(C)O)nc3[C@H](Cc3cc(F)cc(F)c3)NC(=O)Cn3nc(C(F)F)c4c3C(F)(F)[C@@H]3C[C@H]43)c21` [Compound 75, 2-((3b-S,4aR)-3-(difluoromethyl)-5,5-difluoro-3b,4,4a,5-tetrahydro-1H-cyclopropa[3,4]cyclopenta[1,2-c]pyrazol-1-yl)-N—((S)-2-(3,5-difluorophenyl)-1-(3-(4-fluoro-1-methyl-3-(methylsulfonamido)-1H-indazol-7-yl)-6-(3-hydroxy-3-methylbut-1-yn-1-yl)pyridin-2-yl)ethyl)acetamide]: the inhibition at 0.2 µM was determined as 92% and the inhibition at 2 µM was 93%.

Regarding `Cn1nc(NS(C)(=O)=O)c2c(Cl)ccc(-c3ccc(C#CC(C)(C)O)nc3[C@H](Cc3cc(F)cc(F)c3)NC(=O)Cn3nc(C(F)(F)F)c4c3C(F)(F)[C@@H]3C[C@H]43)c21` [Compound 78, N—((S)-1-(3-(4-chloro-1-methyl-3-(methylsulfonamido)-1H-indazol-7-yl)-6-(3-hydroxy-3-methylbut-1-yn-1-yl)pyridin-2-yl)-2-(3,5-difluorophenyl)ethyl)-2-((3b-S,4aR)-5,5-difluoro-3-(trifluoromethyl)-3b,4,4a,5-tetrahydro-1H-cyclopropa[3,4]cyclopenta[1,2-c]pyrazol-1-yl)acetamide], the inhibition at 0.2 µM worked out at 98% and the inhibition at 2 µM was found to be 98%.

Take `CC(C)(O)C#Cc1ccc(-c2cccc3c(=O)[nH]cnc23)c([C@H](Cc2cc(F)cc(F)c2)NC(=O)Cn2nc(C(F)(F)F)c3c2C(F)(F)[C@@H]2C[C@H]32)n1` [Compound 2, 2-((3bS,4aR)-5,5-difluoro-3-(trifluoromethyl)-3b,4,4a,5-tetrahydro-1H-cyclopropa[3,4]cyclopenta[1,2-c]pyrazol-1-yl)-N—((S)-2-(3,5-difluorophenyl)-1-(6-(3-hydroxy-3-methylbut-1-yn-1-yl)-3-(4-oxo-3,4-dihydroquinazolin-8-yl)pyridin-2-yl)ethyl)acetamide]: the inhibition at 0.2 µM stood at 79%.

Regarding `Cn1nc(NS(C)(=O)=O)c2c(Cl)ccc(-c3ccc(C#CC(C)(C)N)nc3[C@H](Cc3cc(F)cc(F)c3)NC(=O)Cn3nc(C(F)F)c4c3C(F)(F)[C@@H]3C[C@H]43)c21` [Compound 127, N—((S)-1-(6-(3-amino-3-methylbut-1-yn-1-yl)-3-(4-chloro-1-methyl-3-(methylsulfonamido)-1H-indazol-7-yl)pyridin-2-yl)-2-(3,5-difluorophenyl)ethyl)-2-((3bS,4aR)-3-(difluoromethyl)-5,5-difluoro-3b,4,4a,5-tetrahydro-1H-cyclopropa[3,4]cyclopenta[1,2-c]pyrazol-1-yl)acetamide], the inhibition at 0.2 µM was 92% and the inhibition at 2 µM is 92%.

`CC(C)(O)C#Cc1cnc([C@H](Cc2cc(F)cc(F)c2)NC(=O)Cn2nc(C(F)F)c3c2C(F)(F)CCC3(F)F)c(-c2ccc3c(c2)C(=O)NC3)c1` [Compound 4H, (S)-2-(3-(difluoromethyl)-4,4,7,7-tetrafluoro-4,5,6,7-tetrahydro-1H-indazol-1-yl)-N-(2-(3,5-difluorophenyl)-1-(5-(3-hydroxy-3-methylbut-1-ynyl)-3-(3-oxoisoindolin-5-yl)pyridin-2-yl)ethyl)acetamide]: the inhibition at 0.2 µM is 8%.

Take `Cn1nc(NS(C)(=O)=O)c2c(Cl)ccc(-c3ccc(C#CC(C)(O)C(F)F)nc3[C@H](Cc3cc(F)cc(F)c3)NC(=O)Cn3nc(C(F)F)c4c3C(F)(F)[C@@H]3C[C@H]43)c21` (stereo partly drawn) [Compound 169, N-((1S)-1-(3-(4-chloro-1-methyl-3-(methylsulfonamido)-1H-indazol-7-yl)-6-(4,4-difluoro-3-hydroxy-3-methylbut-1-yn-1-yl)pyridin-2-yl)-2-(3,5-difluorophenyl)ethyl)-2-((3b-S,4aR)-3-(difluoromethyl)-5,5-difluoro-3b,4,4a,5-tetrahydro-1H-cyclopropa[3,4]cyclopenta[1,2-c]pyrazol-1-yl)acetamide]: the inhibition at 0.2 µM came to 92% and the inhibition at 2 µM stood at 92%.

As to `Cn1nc(NS(C)(=O)=O)c2c(Cl)ccc(-c3ccc(C#CC(C)(C)O)nc3[C@H](Cc3cc(F)cc(F)c3)NC(=O)Cn3nc(C(F)F)c4c3C(F)(F)[C@@H]3C[C@H]43)c21` [Compound 19G, (S)—N-(1-(3-(4 chloro-1-methyl-3-(methylsulfonamido)-1H-indazol-7-yl)-6-(3-hydroxy-3-methylbut-1-ynyl)pyridin-2-yl)-2-(3,5-difluorophenyl)ethyl)-2-((3bS,4aR)-5,5-difluoro-3-(difluoromethyl)-3b,4,4a,5-tetrahydro-1H-cyclopropa[3,4]cyclopenta[1,2-c]pyrazol-1-yl)acetamide], the inhibition at 0.2 µM is 97% and the inhibition at 2 µM was found to be 93%.

For the compound `O=C(Cn1nc(C(F)F)c2c1C(F)(F)CCC2(F)F)N[C@@H](Cc1cc(F)cc(F)c1)c1nc(-c2ccc3c(c2)C(=O)NC3)ccc1-c1ccc2c(c1)C(=O)NC2` [Compound 6, (S)—N-(1-(3,6-bis(3-oxoisoindolin-5-yl)pyridin-2-yl)-2-(3,5-difluorophenyl)ethyl)-2-(3-(difluoromethyl)-4,4,7,7-tetrafluoro-4,5,6,7-tetrahydro-1H-indazol-1-yl)acetamide], the inhibition at 0.2 µM stood at 5%.
